Laboratory results as given in patent US10479780B2, “Aminopyrazole derivatives” (Chugai Seiyaku Kabushiki Kaisha, priority 2015, dated 2019).
Where two headings read alike, the source gives them in different places.

How the values were obtained:
Type in all cases: biochemical
human Yes1 enzyme = biological target: T1, human Yes1 enzyme (Homo sapiens, UniProt P07947); experiment: Yes1 enzyme inhibitory activity (time-resolved fluorometry, biotinylated peptide phosphorylation); details: read-out: YES_IC50
T1 construct: made in house
T1 sequence (P07947 whole entry): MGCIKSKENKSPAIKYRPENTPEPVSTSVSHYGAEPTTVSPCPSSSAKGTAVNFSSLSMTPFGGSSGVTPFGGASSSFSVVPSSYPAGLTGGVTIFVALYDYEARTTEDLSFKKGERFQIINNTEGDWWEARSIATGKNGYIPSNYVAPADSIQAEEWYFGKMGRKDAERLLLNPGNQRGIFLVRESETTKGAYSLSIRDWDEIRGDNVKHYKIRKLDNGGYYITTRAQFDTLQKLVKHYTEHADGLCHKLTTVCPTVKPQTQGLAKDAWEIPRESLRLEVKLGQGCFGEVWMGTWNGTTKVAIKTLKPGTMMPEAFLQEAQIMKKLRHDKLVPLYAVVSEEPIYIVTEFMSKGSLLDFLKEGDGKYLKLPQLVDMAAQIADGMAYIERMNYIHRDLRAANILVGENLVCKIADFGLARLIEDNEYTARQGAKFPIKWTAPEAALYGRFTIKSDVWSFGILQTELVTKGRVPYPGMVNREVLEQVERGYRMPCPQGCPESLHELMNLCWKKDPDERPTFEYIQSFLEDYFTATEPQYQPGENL
Outline: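 Inhibition was expressed against a compound-free control to give IC50, using TR-FRET read-out (Eu-cryptate anti-pTyr antibody, streptavidin-XL665).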

human Src enzyme = biological target: T2, human Src enzyme (Homo sapiens, UniProt P12931); experiment: Src enzyme inhibitory activity (time-resolved fluorometry, biotinylated peptide phosphorylation); details: read-out: SRC_IC50
T2 construct: purchased Carna Biosciences, Inc. 08-173
T2 sequence (P12931 whole entry): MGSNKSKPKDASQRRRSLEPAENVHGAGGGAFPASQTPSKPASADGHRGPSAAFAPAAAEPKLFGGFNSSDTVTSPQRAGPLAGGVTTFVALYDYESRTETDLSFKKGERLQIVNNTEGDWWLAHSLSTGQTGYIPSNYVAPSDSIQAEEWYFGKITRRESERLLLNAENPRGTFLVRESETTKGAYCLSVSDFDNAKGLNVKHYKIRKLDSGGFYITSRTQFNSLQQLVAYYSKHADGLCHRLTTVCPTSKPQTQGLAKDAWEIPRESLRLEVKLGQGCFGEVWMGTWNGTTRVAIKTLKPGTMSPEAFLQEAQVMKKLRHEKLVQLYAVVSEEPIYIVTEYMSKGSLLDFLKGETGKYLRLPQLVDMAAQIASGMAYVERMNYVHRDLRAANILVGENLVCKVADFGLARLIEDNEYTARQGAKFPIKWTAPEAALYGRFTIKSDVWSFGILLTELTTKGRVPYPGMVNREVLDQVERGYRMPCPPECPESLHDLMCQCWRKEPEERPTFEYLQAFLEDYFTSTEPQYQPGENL
Outline: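 Compounds were tested for blocking tyrosine phosphorylation of a biotinylated peptide substrate by recombinant human Src. Phosphorylated product was quantified by time-resolved fluorometry using europium cryptate and XL665 conjugates, and IC50 was calculated against the compound-free control.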

human Lck enzyme = biological target: T3, human Lck enzyme (Homo sapiens, UniProt P06239); experiment: Lck enzyme inhibitory activity (time-resolved fluorometry, biotinylated peptide phosphorylation); details: read-out: LCK_IC50
T3 construct: purchased Carna Biosciences, Inc. 08-170
T3 sequence (P06239 whole entry): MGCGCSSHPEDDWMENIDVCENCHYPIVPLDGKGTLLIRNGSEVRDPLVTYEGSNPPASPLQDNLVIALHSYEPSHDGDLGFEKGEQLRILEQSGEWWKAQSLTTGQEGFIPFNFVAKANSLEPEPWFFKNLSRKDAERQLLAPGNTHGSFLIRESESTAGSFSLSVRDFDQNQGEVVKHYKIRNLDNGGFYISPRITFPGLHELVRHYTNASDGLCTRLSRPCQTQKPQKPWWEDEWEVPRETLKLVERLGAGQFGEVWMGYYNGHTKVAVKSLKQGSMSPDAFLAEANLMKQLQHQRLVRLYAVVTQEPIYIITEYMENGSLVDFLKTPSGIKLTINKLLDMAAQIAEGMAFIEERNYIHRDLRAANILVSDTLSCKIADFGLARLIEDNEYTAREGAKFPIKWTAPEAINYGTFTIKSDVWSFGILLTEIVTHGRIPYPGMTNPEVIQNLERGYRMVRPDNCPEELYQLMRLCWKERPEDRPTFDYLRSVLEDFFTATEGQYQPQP
Outline: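 Readout pairs a europium cryptate-labelled anti-phosphotyrosine antibody with XL665-streptavidin, measured by time-resolved fluorescence. IC50 derived from percent inhibition against untreated controls.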

[1] = biotinylated peptide phosphorylation

| Structure (SMILES) | IC50 (human Yes1 enzyme; [1]) | IC50 (human Src enzyme; [1]) | IC50 (human Lck enzyme; [1]) | IC50 (human Yes1 enzyme) | IC50 (human Src enzyme) | IC50 (human Lck enzyme) |
| --- | --- | --- | --- | --- | --- | --- |
| Cc1cc2cc(C(=O)c3cnn(-c4cnc(Oc5c(F)cccc5F)cc4C)c3N)[nH]c2cc1N1CCOCC1 [Example 4-2-124, [5-amino-1-[6-(2,6-difluorophenoxy)-4-methylpyridin-3-yl]pyrazol-4-yl]-(5-methyl-6-morpholin-4-yl-1H-indol-2-yl)methanone] | 4.1 nM | 34 nM | 6.9 nM | – | – | – |
| Cc1cc(-n2ncc(C(=O)c3cc4cc(OC5CCN(C(C)C)CC5)c(F)cc4[nH]3)c2N)ccc1Oc1cccc(F)c1 [Example 5-1-208, [5-amino-1-[4-(3-fluorophenoxy)-3-methylphenyl]pyrazol-4-yl]-[6-fluoro-5-(1-propan-2-ylpiperidin-4-yl)oxy-1H-indol-2-yl] methanone] | – | – | – | 3.7 nM | 450 nM | 65 nM |
| COc1ccnc(S(=O)(=O)Nc2cc3[nH]c(C(=O)c4cnn(-c5cnc(Oc6c(F)cccc6F)cc5C)c4N)cc3cc2F)c1 [Example 5-1-513, N-[2-[5-amino-1-[6-(2,6-difluorophenoxy)-4-methylpyridin-3-yl]pyrazole-4-carbonyl]-5-fluoro-1H-indol-6-yl]-4-methoxypyridine-2-sulfonamide] | 3.7 nM | 510 nM | 98 nM | – | – | – |
| Cc1cc(Oc2ccccc2F)ncc1-n1ncc(C(=O)c2cc3cc(OCC(F)F)c(NS(=O)(=O)CCCF)cc3[nH]2)c1N [Example 4-24-029, N-[2-[5-amino-1-[6-(2-fluorophenoxy)-4-methylpyridin-3-yl]pyrazole-4-carbonyl]-5-(2,2-difluoroethoxy)-1H-indol-6-yl]-3-fluoropropane-1-sulfonamide] | 1.6 nM | 54 nM | 29 nM | – | – | – |
| COc1ccnc(S(=O)(=O)Nc2cc3[nH]c(C(=O)c4cnn(-c5ccc(Oc6ccccc6F)cc5C)c4N)cc3cc2F)c1 [Example 5-1-512, N-[2-[5-amino-1-[4-(2-fluorophenoxy)-2-methylphenyl]pyrazole-4-carbonyl]-5-fluoro-1H-indol-6-yl]-4-methoxypyridine-2-sulfonamide] | 1.2 nM | 250 nM | 33 nM | – | – | – |
| Cc1cc(Oc2cccc(F)c2F)ccc1-n1ncc(C(=O)c2cc3cc(F)c(NS(=O)(=O)CCCF)cc3[nH]2)c1N [Example 4-2-016, N-[2-[5-amino-1-[4-(2,3-difluorophenoxy)-2-methylphenyl]pyrazole-4-carbonyl]-5-fluoro-1H-indol-6-yl]-3-fluoropropane-1-sulfonamide] | 2.1 nM | 70 nM | 19 nM | – | – | – |
| Cc1cc(Oc2ccccc2F)ccc1-n1ncc(C(=O)c2cc3cc(OCC(F)F)c(N4C(=O)[C@@H]5C[C@H](NC(=O)OCc6ccccc6)CN5C4=O)cc3[nH]2)c1N [Example 5-1-273, Benzyl N-[(6S,7aS)-2-[2-[5-amino-1-[4-(2-fluorophenoxy)-2-methylphenyl]pyrazole-4-carbonyl]-5-(2,2-difluoroethoxy)-1H-indol-6-yl]-1,3-dioxo-5,6,7,7a-tetrahydropyrrolo[1,2-c]imidazol-6-yl]carbamate] | – | – | – | 1.8 nM | 33 nM | 15 nM |
| Cc1cc(Oc2c(F)cccc2Cl)ncc1-n1ncc(C(=O)c2cc3cc(F)c(NS(=O)(=O)C4CC4)cc3[nH]2)c1N [Example 4-2-046, N-[2-[5-amino-1-[6-(2-chloro-6-fluorophenoxy)-4-methylpyridin-3-yl]pyrazole-4-carbonyl]-5-fluoro-1H-indol-6-yl]cyclopropanesulfonamide] | 12 nM | 230 nM | 48 nM | – | – | – |
| Cc1cc(Oc2c(F)cccc2F)ncc1-n1ncc(C(=O)c2cc3cc(OCC(F)F)c(NS(=O)(=O)c4ccc(F)cc4)cc3[nH]2)c1N [Example 5-1-297, N-[2-[5-amino-1-[6-(2,6-difluorophenoxy)-4-methylpyridin-3-yl]pyrazole-4-carbonyl]-5-(2,2-difluoroethoxy)-1H-indol-6-yl]-4-fluorobenzenesulfonamide] | – | – | – | 8.5 nM | 580 nM | 46 nM |
| Cc1cc(Oc2ccccc2F)ncc1-n1ncc(C(=O)c2cc3cc(OC(F)F)c(NC4CN(S(C)(=O)=O)C4)cc3[nH]2)c1N [Example 4-23-025, [5-amino-1-[6-(2-fluorophenoxy)-4-methylpyridin-3-yl]pyrazol-4-yl]-[5-(difluoromethoxy)-6-[(1-methylsulfonylazetidin-3-yl)amino]-1H-indol-2-yl]methanone] | 1.8 nM | 30 nM | 5.6 nM | – | – | – |
| Cc1cc(Oc2c(F)cccc2F)ncc1-n1ncc(C(=O)c2cc3cc(F)c(NS(=O)(=O)c4cccnc4)cc3[nH]2)c1N [Example 5-1-491, N-[2-[5-amino-1-[6-(2,6-difluorophenoxy)-4-methylpyridin-3-yl]pyrazole-4-carbonyl]-5-fluoro-1H-indol-6-yl]pyridine-3-sulfonamide] | 4.9 nM | 400 nM | 100 nM | – | – | – |
| Cc1cc(Oc2c(F)cccc2F)ncc1-n1ncc(C(=O)c2cc3cc(OCC(F)F)c(N4C(=O)NC(C)(C)C4=O)cc3[nH]2)c1N [Example 4-23-032, 3-{2-{5-amino-1-[6-(2,6-difluorophenoxy)-4-methylpyridin-3-yl]pyrazole-4-carbonyl}-5-(2,2-difluoroethoxy)-1H-indol-6-yl}-5,5-dimethylimidazolidine-2,4-dione] | 0.58 nM | 17 nM | 2.5 nM | – | – | – |
| Cc1cc(Oc2ccccc2F)ncc1-n1ncc(C(=O)c2cc3cc(OCC(F)F)c(N4CCOCC4)cc3[nH]2)c1N [Example 4-25-020, {5-amino-1-[6-(2-fluorophenoxy)-4-methylpyridin-3-yl]pyrazol-4-yl}-[5-(2,2-difluoroethoxy)-6-morpholin-4-yl-1H-indol-2-yl]methanone] | 1.2 nM | 13 nM | 2.3 nM | – | – | – |
| Cc1cc(-n2ncc(C(=O)c3cc4cc(F)c(NS(N)(=O)=O)cc4[nH]3)c2N)ccc1Oc1ccccc1F [Example 4-20-003, 2-[5-amino-1-[4-(2-fluorophenoxy)-3-methylphenyl]pyrazole-4-carbonyl]-5-fluoro-6-(sulfamoylamino)-1H-indole] | 1.4 nM | 15 nM | 2.1 nM | – | – | – |
| Cc1cc(-n2ncc(C(=O)c3cc4cc(C)c(N5C(=O)NC6(CCOCC6)C5=O)cc4[nH]3)c2N)ccc1Oc1ccccc1F [Example 5-1-469, 3-[2-[5-amino-1-[4-(2-fluorophenoxy)-3-methylphenyl]pyrazole-4-carbonyl]-5-methyl-1H-indol-6-yl]-8-oxa-1,3-diazaspiro[4.5] decane-2,4-dione] | 9 nM | 2700 nM | 100 nM | – | – | – |
| Cc1cc2cc(C(=O)c3cnn(-c4cnc(Oc5ccccc5Cl)cc4C)c3N)[nH]c2cc1N1CCCS1(=O)=O [Example 4-2-117, [5-amino-1-[6-(2-chlorophenoxy)-4-methylpyridin-3-yl]pyrazol-4-yl]-[6-(1,1-dioxo-1,2-thiazolidin-2-yl)-5-methyl-1H-indol-2-yl]methanone] | 0.6 nM | 21 nM | 4.8 nM | – | – | – |
| Cc1cc(Oc2ccccc2F)ccc1-n1ncc(C(=O)c2cc3cc(F)c(N4CC5(CCOCC5)NS4(=O)=O)cc3[nH]2)c1N [Example 5-1-403, [5-amino-1-[4-(2-fluorophenoxy)-2-methylphenyl]pyrazol-4-yl]-[6-(2,2-dioxo-8-oxa-2λ6-thia-1.3-diazaspiro[4.5]decan-3-yl)-5-fluoro-1H-indol-2-yl]methanone] | 0.98 nM | 88 nM | 8.6 nM | – | – | – |
| Cc1cc(Oc2c(F)cccc2F)ncc1-n1ncc(C(=O)c2cc3cc(OC(F)F)c(N)cc3[nH]2)c1N [Example 5-1-074, [6-amino-5-(difluoromethoxy)-1H-indol-2-yl]-[5-amino-1-[6-(2,6-difluorophenoxy)-4-methylpyridin-3-yl]pyrazol-4-yl]methanone] | – | – | – | 1.6 nM | 25 nM | 3.2 nM |
| Cc1cc2cc(C(=O)c3cnn(-c4cnc(Oc5ccccc5F)cc4C)c3N)[nH]c2cc1NS(=O)(=O)c1cccc(Cl)n1 [Example 5-1-508, N-[2-[5-amino-1-[6-(2-fluorophenoxy)-4-methylpyridin-3-yl]pyrazole-4-carbonyl]-5-methyl-1H-indol-6-yl]-6-chloropyridine-2-sulfonamide] | 4 nM | 920 nM | 140 nM | – | – | – |
| Cc1cc2[nH]c(C(=O)c3cnn(-c4cnc(Oc5ccccc5F)cc4C)c3N)cc2cc1NS(C)(=O)=O [Example 4-2-052, N-[2-[5-amino-1-[6-(2-fluorophenoxy)-4-methylpyridin-3-yl]pyrazole-4-carbonyl]-6-methyl-1H-indol-5-yl]methanesulfonamide] | 0.44 nM | 5.2 nM | 0.97 nM | – | – | – |
| Cc1cc(Oc2ccccc2F)cc(F)c1-n1ncc(C(=O)c2cc3cc(F)c(NS(=O)(=O)CCCF)cc3[nH]2)c1N [Example 4-2-019, N-[2-[5-amino-1-[2-fluoro-4-(2-fluorophenoxy)-6-methylphenyl]pyrazole-4-carbonyl]-5-fluoro-1H-indol-6-yl]-3-fluoropropane-1-sulfonamide] | 5.3 nM | 72 nM | 40 nM | – | – | – |
| Cc1cc2cc(C(=O)c3cnn(-c4cnc(Oc5ccccc5Cl)cc4C)c3N)[nH]c2cc1NS(C)(=O)=O [Example 4-2-063, N-[2-[5-amino-1-[6-(2-chlorophenoxy)-4-methylpyridin-3-yl]pyrazole-4-carbonyl]-5-methyl-1H-indol-6-yl]methanesulfonamide] | 2 nM | 78 nM | 8.3 nM | – | – | – |
